Data taken from patent publication US20120053165A1, “Novel Phenyl Imidazoles and Phenyl Triazoles As Gamma-Secretase Modulators” (Pfizer Inc., priority 2009, published 2012).
Where two headings read alike, the source gives them in different places.

System: production of amyloid beta protein Aβ(1-42) in human WT-APP overexpressing CHO cells
[1] = read-out: Aβ 42 IC50, Geometric mean of 2-8 determinations, human WT-APP overexpressing CHO cells
[2] = Homo sapiens, CHO, read-out: Aβ 42 IC50, Geometric mean of 2-8 determinations, human WT-APP overexpressing CHO cells
[3] = Homo sapiens, CHO, read-out: Aβ 42 IC50
[4] = Homo sapiens, CHO, read-out: Aβ 42 IC50, Single IC50 determination, human WT-APP overexpressing CHO cells
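Note: Aβ(1-42) released into conditioned medium captured by ELISA after roughly 24 h compound exposure, vehicle and inhibitor controls defining maximal and minimal inhibition.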

Question: For `COc1cc(C(=O)NC2(Cc3cccc(Cl)c3)CC2)ccc1-n1cnc(C)c1` [Example 92, N-[1-(3-chlorobenzyl)cyclopropyl]-3-methoxy-4-(4-methyl-1H-imidazol-1-yl) benzamide], which IC50 [1] is on record?
Answer: 595 nM

Question: `COc1cc(C(=O)N2CCC(Oc3ccccc3OC(F)(F)F)CC2)ccc1-n1cnc(C)c1` [Example 93, 1-[3-methoxy-4-(4-methyl-1H-imidazol-1-yl)benzoyl]-4-[2-(trifluoromethoxy)phenoxy]piperidine] was tested. Which IC50 [2] did it give?
Answer: 602 nM

Question: Which IC50 [1] does the source give for `COc1cc(C(=O)NCc2nc(-c3ccc(C(F)(F)F)c(F)c3)no2)ccc1-n1cnc(C)c1` [Example 94, N-({3-[3-fluoro-4-(trifluoromethyl)phenyl]-1,2,4-oxadiazol-5-yl}methyl)-3-methoxy-4-(4-methyl-1H-imidazol-1-yl) benzamide] here?
Answer: 610 nM

Question: For `COc1cc(C(=O)N[C@@H]2CCC[C@@H]2Cc2cccc(F)c2)ccc1-n1cnc(C)c1` [Example 95, N-[(1R,2R)-2-(3-fluorobenzyl)cyclopentyl]-3-methoxy-4-(4-methyl-1H-imidazol-1-yl) benzamide], which IC50 [1] is on record?
Answer: 627 nM

Question: Which IC50 [1] does the source give for `COc1cc(C(=O)NC(c2ccccc2Cl)c2nc3ccccc3n2C)ccc1-n1cnc(C)c1` (centres unmarked) [Example 96, N-[(2-chlorophenyl)(1-methyl-1H-benzimidazol-2-yl)methyl]-3-methoxy-4-(4-methyl-1H-imidazol-1-yl) benzamide] here?
Answer: 630 nM

Question: Which IC50 [1] does the source give for `COc1cc(C(=O)NCCc2c[nH]c3ccc(C)cc23)ccc1-n1cnc(C)c1` [Example 97, 3-methoxy-4-(4-methyl-1H-imidazol-1-yl)-N-[2-(5-methyl-1H-indol-3-yl)ethyl] benzamide] here?
Answer: 634 nM

Question: `COc1cc(C(=O)N2CCC(c3cccc(Cl)c3)C2)ccc1-n1cnc(C)c1` (centres unmarked) [Example 98, 1-(4-{[3-(3-chlorophenyl)pyrrolidin-1-yl]carbonyl}-2-methoxyphenyl)-4-methyl-1H-imidazole] was tested. Which IC50 [2] did it give?
Answer: 642 nM

Question: Which IC50 [1] does the source give for `COc1cc(C(=O)NC(C)c2ccc3[nH]ccc3c2)ccc1-n1cnc(C)c1` (centres unmarked) [Example 99, N-[1-(1H-indol-5-yl)ethyl]-3-methoxy-4-(4-methyl-1H-imidazol-1-yl) benzamide] here?
Answer: 665 nM

Question: With `COc1cc(C(=O)NC(C)CCc2ccccc2)ccc1-n1cnc(C)c1` (centres unmarked) [Example 100, 3-methoxy-4-(4-methyl-1H-imidazol-1-yl)-N-(1-methyl-3-phenylpropyl) benzamide] as the compound, how does the IC50 [1] read?
Answer: 667 nM

Question: Which IC50 [2] does the source give for `COc1cc(C(=O)NCC2(c3ccccc3)CC2)ccc1-n1cnc(C)c1` [Example 101, 3-methoxy-4-(4-methyl-1H-imidazol-1-yl)-N-[(1-phenylcyclopropyl)methyl]benzamide] here?
Answer: 686 nM

Question: `COc1cc(C(=O)NCc2c(C)cccc2NS(C)(=O)=O)ccc1-n1cnc(C)c1` [Example 102, 3-methoxy-4-(4-methyl-1H-imidazol-1-yl)-N-{2-methyl-6-[(methyl-sulfonyl)amino]benzyl} benzamide] was tested. Which IC50 [1] did it give?
Answer: 689 nM

Question: Which IC50 [3] does the source give for `COc1cc(C(=O)NCCc2ccc(Cl)cc2)ccc1-n1cnc(C)c1` [Example 103, N-[2-(4-chlorophenyl)ethyl]-3-methoxy-4-(4-methyl-1H-imidazol-1-yl)benzamide] here?
Answer: 698 nM

Question: With `CCOc1ccccc1CCNC(=O)c1ccc(-n2cnc(C)c2)c(OC)c1` [Example 104, N-[2-(2-ethoxyphenyl)ethyl]-3-methoxy-4-(4-methyl-1H-imidazol-1-yl)benzamide] as the compound, how does the IC50 [3] read?
Answer: 698 nM

Question: Which IC50 [1] does the source give for `COc1ccc(C2(CNC(=O)c3ccc(-n4cnc(C)c4)c(OC)c3)CCCC2)cc1` [Example 105, 3-methoxy-N-{[1-(4-methoxyphenyl)cyclopentyl]methyl}-4-(4-methyl-1H-imidazol-1-yl) benzamide] here?
Answer: 708 nM

Question: `COc1cc(C(=O)NC2CCCc3c(O)cccc32)ccc1-n1cnc(C)c1` (centres unmarked) [Example 106, N-(5-hydroxy-1,2,3,4-tetrahydronaphthalen-1-yl)-3-methoxy-4-(4-methyl-1H-imidazol-1-yl)benzamide] was tested. Which IC50 [2] did it give?
Answer: 731 nM

Question: `COc1cc(C(=O)NC(c2ccc(F)cc2)c2nc3ccccc3n2C)ccc1-n1cnc(C)c1` (centres unmarked) [Example 107, N-[(4-fluorophenyl)(1-methyl-1H-benzimidazol-2-yl)methyl]-3-methoxy-4-(4-methyl-1H-imidazol-1-yl)benzamide] was tested. Which IC50 [2] did it give?
Answer: 735 nM

Question: For `COc1cc(C(=O)N2CC(Oc3cc(Cl)ccc3Cl)C2)ccc1-n1cnc(C)c1` [Example 108, 1-(4-{[3-(2,5-dichlorophenoxy)azetidin-1-yl]carbonyl}-2-methoxyphenyl)-4-methyl-1H-imidazole], which IC50 [4] is on record?
Answer: 738 nM

Question: For `COc1ccc(OC)c(C2CCN(C(=O)c3ccc(-n4cnc(C)c4)c(OC)c3)C2)c1` (centres unmarked) [Example 109, 1-(4-{[3-(2,5-dimethoxyphenyl)pyrrolidin-1-yl]carbonyl}-2-methoxyphenyl)-4-methyl-1H-imidazole], which IC50 [2] is on record?
Answer: 739 nM

Question: With `COc1cc(C(=O)N[C@@H](C)c2ccc(C)cc2)ccc1-n1cnc(C)c1` [Example 110, 3-methoxy-4-(4-methyl-1H-imidazol-1-yl)-N-[(1S)-1-(4-methylphenyl)ethyl) benzamide] as the compound, how does the IC50 (read-out: Aβ 42 IC50) read?
Answer: 747 nM

Question: With `COc1cc(C(=O)NCC(c2ccc(C(F)(F)F)cc2)N2CCOCC2)ccc1-n1cnc(C)c1` (centres unmarked) [Example 111, 3-methoxy-4-(4-methyl-1H-imidazol-1-yl)-N-{2-morpholin-4-yl-2-[4-(trifluoromethyl)phenyl]ethyl}benzamide] as the compound, how does the IC50 [2] read?
Answer: 756 nM

Question: How did the IC50 [3] turn out when `CCOc1cccc(CCNC(=O)c2ccc(-n3cnc(C)c3)c(OC)c2)c1` [Example 112, N-[2-(3-ethoxyphenyl)ethyl]-3-methoxy-4-(4-methyl-1H-imidazol-1-yl)benzamide] was run?
Answer: 765 nM

Question: `COc1cc(C(=O)NCC2CCc3ccccc3C2)ccc1-n1cnc(C)c1` (centres unmarked) [Example 113, 3-methoxy-4-(4-methyl-1H-imidazol-1-yl)-N-(1,2,3,4-tetrahydro-naphthalen-2-ylmethyl) benzamide] was tested. Which IC50 [1] did it give?
Answer: 784 nM

Question: `COc1cc(C(=O)NC2CCc3ccccc3C2)ccc1-n1cnc(C)c1` (centres unmarked) [Example 114, 3-methoxy-4-(4-methyl-1H-imidazol-1-yl)-N-(1,2,3,4-tetrahydro-naphthalen-2-yl) benzamide] was tested. Which IC50 [1] did it give?
Answer: 793 nM

Question: Which IC50 [2] does the source give for `COc1cc(C(=O)N[C@@H]2CCC[C@@H]2c2ccc(F)cc2)ccc1-n1cnc(C)c1` [Example 115, N-[(1R,2R)-2-(4-fluorophenyl)cyclopentyl]-3-methoxy-4-(4-methyl-1H-imidazol-1-yl)benzamide] here?
Answer: 798 nM

Question: Which IC50 [2] does the source give for `COc1cc(C(=O)NCc2cc(-c3ccc(F)cc3)on2)ccc1-n1cnc(C)c1` [Example 116, N-{[5-(4-fluorophenyl)isoxazol-3-yl]methyl}-3-methoxy-4-(4-methyl-1H-imidazol-1-yl)benzamide] here?
Answer: 815 nM

Question: How did the IC50 [1] turn out when `COc1cc(C(=O)NCCc2c(C)[nH]c3ccccc23)ccc1-n1cnc(C)c1` [Example 117, 3-methoxy-4-(4-methyl-1H-imidazol-1-yl)-N-[2-(2-methyl-1H-indol-3-yl)ethyl] benzamide] was run?
Answer: 828 nM

Question: For `COc1cc(C(=O)N(C)Cc2cccc3ccccc23)ccc1-n1cnc(C)c1` [Example 118, 3-methoxy-N-methyl-4-(4-methyl-1H-imidazol-1-yl)-N-(1-naphthylmethyl) benzamide], which IC50 [1] is on record?
Answer: 837 nM

Question: For `COc1cc(C(=O)N2CCC(Oc3cccc(C(F)(F)F)c3)CC2)ccc1-n1cnc(C)c1` [Example 119, 1-[3-methoxy-4-(4-methyl-1H-imidazol-1-yl)benzoyl]-4-[3-(trifluoromethyl)phenoxy]piperidine], which IC50 [2] is on record?
Answer: 847 nM

Question: Which IC50 [4] does the source give for `COc1ccc2c(c1)CCC2NC(=O)c1ccc(-n2cnc(C)c2)c(OC)c1` (centres unmarked) [Example 120, 3-methoxy-N-(5-methoxy-2,3-dihydro-1H-inden-1-yl)-4-(4-methyl-1H-imidazol-1-yl)benzamide] here?
Answer: 878 nM

Question: `COc1cc(C(=O)NCCc2nc3cc(C)ccc3o2)ccc1-n1cnc(C)c1` [Example 121, 3-methoxy-N-[2-(5-methyl-1,3-benzoxazol-2-yl)ethyl]-4-(4-methyl-1H-imidazol-1-yl) benzamide] was tested. Which IC50 [1] did it give?
Answer: 880 nM

Question: With `COc1cc(C(=O)NCC2COc3ccccc3C2)ccc1-n1cnc(C)c1` (centres unmarked) [Example 122, N-(3,4-dihydro-2H-chromen-3-ylmethyl)-3-methoxy-4-(4-methyl-1H-imidazol-1-yl)benzamide] as the compound, how does the IC50 [2] read?
Answer: 976 nM

Question: How did the IC50 [1] turn out when `COc1cc(C(=O)N(Cc2cc(-c3ccccc3)ccc2C)C2CC2)ccc1-n1cnc(C)c1` [Example 123, N-cyclopropyl-3-methoxy-N-[(4-methylbi-phenyl-3-yl)methyl]-4-(4-methyl-1H-imidazol-1-yl) benzamide] was run?
Answer: 73 nM

Question: How did the IC50 [2] turn out when `CCOc1cc(C)c(CN(C(=O)c2ccc(-n3cnc(C)c3)c(OC)c2)C2CC2)cc1C(C)C` [Example 124, N-cyclopropyl-N-(4-ethoxy-5-isopropyl-2-methylbenzyl)-3-methoxy-4-(4-methyl-1H-imidazol-1-yl)benzamide] was run?
Answer: 114 nM

Question: With `COc1cc(C(=O)N(Cc2cc(C(C)C)ccc2C)C2CC2)ccc1-n1cnc(C)c1` [Example 125, N-cyclopropyl-N-(5-isopropyl-2-methylbenzyl)-3-methoxy-4-(4-methyl-1H-imidazol-1-yl) benzamide] as the compound, how does the IC50 [1] read?
Answer: 185 nM

Question: `COc1cc(C(=O)N[C@@H](C)c2cccc(-c3ccccc3)c2)ccc1-n1cnc(C)c1` [Example 126, N-[(1S)-1-biphenyl-3-ylethyl]-3-methoxy-4-(4-methyl-1H-imidazol-1-yl) benzamide] was tested. Which IC50 [1] did it give?
Answer: 492 nM

Question: With `COc1cc(C(=O)N[C@H]2CCc3ccc(Cl)cc32)ccc1-n1cnc(C)c1` [Example 129, N-[(1S)-6-chloro-2,3-dihydro-1H-inden-1-yl]-3-methoxy-4-(4-methyl-1H-imidazol-1-yl)benzamide] as the compound, how does the IC50 [2] read?
Answer: 605 nM

Question: Which IC50 [2] does the source give for `COc1cc(C(=O)NC2COc3ccc(C(F)(F)F)cc32)ccc1-n1cnc(C)c1` (centres unmarked) [Example 130, 3-methoxy-4-(4-methyl-1H-imidazol-1-yl)-N-[5-(trifluoro-methyl)-2,3-dihydro-1-benzofuran-3-yl]benzamide] here?
Answer: 666 nM

Question: For `COc1cc(C(=O)N2CC(COc3ccccc3C(F)(F)F)C2)ccc1-n1cnc(C)c1` [Example 131, 1-{2-methoxy-4-[(3-{[2-(trifluoro-methyl)phenoxy]methyl}azetidin-1-yl)carbonyl]phenyl}-4-methyl-1H-imidazole], which IC50 [2] is on record?
Answer: 311 nM
